From patent publication US4865619A, “Use, as a coupler, of 2,4-diamino-1,3-dimethoxybenzene or one of its salts, in combination with oxidation dye precursors, for dyeing human hair, hair dyeing composition containing the said coupler and process for preparing the said coupler” (L'Oreal, priority 1987, dated 1989)

Key:
[1] = coloration of hair by the coupler in combination with oxidation dye precursors, oxidizing alkaline medium; design: species or system human
Protocol: According to this process, the dyeing composition described above is mixed at the time of use with a sufficient quantity of an oxidizing solution, and the mixture obtained is then applied on the hair.
The oxidizing solution contains oxidizing agents such as hydrogen peroxide, urea peroxide or persalts such as ammonium persulphate. "20 volumes" hydrogen peroxide solution is preferably used.
The mixture obtained is applied on the hair; it is left in place for 10 to 40 minutes, preferably 15 to 30 minutes, after which the hair is rinsed, washed with shampoo, rinsed again and dried.

[2] = mutagenicity (coupler stated to be nonmutagenic)

stability of the colorations ([1]; red colorations, in combination with p-aminophenols, oxidizing alkaline medium): good stability
Structure (SMILES): COc1ccc(N)c(OC)c1N [2,4-diamino-1,3-dimethoxybenzene]
stability of the hues to light, inclement weather and washing ([1]; para-aminophenols, after development in the presence of an oxidizing agent): especially stable to light, to inclement weather and to washing
mutagenicity [2]: nonmutagenic
